# According to patent US20260279694A1, “ELECTROLYTE SOLUTION FOR HYBRID ELECTROLYTIC CAPACITORS AND HYBRID ELECTROLYTIC CAPACITOR” (SANYO CHEMICAL INDUSTRIES, LTD., priority 2023, published 2026):
# Test: Measurement of acid dissociation constant (pKa) by titration in methanol
# Format: physicochemical
# Conditions: 25° C.; 1 part by weight acid in 99 parts methanol titrated with 0.1 mol/L methanolic potassium hydroxide; pH at half the titrant of first equivalence point
# Description: At 25° C., 99 parts by weight of methanol was added to 1 part by weight of a carboxylic acid (A), and the contents were shaken and mixed until the carboxylic acid (A) was completely dissolved. A 0.1 mol/L methanolic potassium hydroxide solution was added dropwise to the resulting methanol solution of the carboxylic acid (A) to obtain a titration curve having inflection points, and among the inflection points, an inflection point at which the amount of titrant added was the smallest was defined as an equivalence point. The pH at half the amount of titrant added at the equivalence point on the obtained titration curve was read, and the pH was defined as the acid dissociation constant (pKa) of the carboxylic acid (A).
# The pKa of the acid component (A′) was also measured in the same manner as the pKa of the carboxylic acid (A).
pKa,Compound,Acid dissociation constant (pKa)
–,"O=C(O)c1cc(C(=O)O)c(C(=O)OCCO)cc1C(=O)O [Example A5, pyromellitic acid ethylene glycol monoester]",2.6
3.4,"O=C(O)c1ccc(C(=O)O)o1 [2,5-Furandicarboxylic acid, 2,5-furandicarboxylic acid, reference compound]",–
–,"O=C(O)c1ccccc1C(=O)OCCCCCCCCCCO [Example A11, phthalic acid 1,10-decanediol monoester]",4.0
6.7,"O=C(O)CCCCCCCC(=O)O [Azelaic acid, azelaic acid, reference compound]",–
–,"CCCCCCCCCCOC(=O)c1ccccc1C(=O)O [Example A10, phthalic acid n-decanol monoester]",3.9
9.8,"OB(O)O [Boric acid, boric acid, reference compound]",–
2.8,"O=C(O)c1cc(C(=O)O)c(C(=O)O)cc1C(=O)O [Pyromellitic acid, pyromellitic acid, reference compound]",–
–,pyromellitic acid polyethylene glycol monoester [Example A6],2.9
–,"O=C(O)c1c(C(=O)O)c(C(=O)O)c(C(=O)OCCO)c(C(=O)O)c1C(=O)O [Example A7, mellitic acid ethylene glycol monoester]",1.7
–,"O=C(O)c1ccccc1C(=O)OCCO [Example A1, phthalic acid ethylene glycol monoester]",3.8
3.5,"O=C(O)c1ccc(C(=O)O)c(C(=O)O)c1 [Trimellitic acid, trimellitic acid, reference compound]",–
–,trimellitic acid polyethylene glycol monoester [Example A4],3.6

Compound,pKa,Acid dissociation constant (pKa)
"O=C(O)c1ccccc1C(=O)O [Phthalic acid, phthalic acid, reference compound]",3.9,–
